Data: patent publication US12023320B2, “Therapeutic agent for fatty liver disease” (EA PHARMA CO., LTD., priority 2020, dated 2024)

Tested on: high-fat and high-fructose-induced NASH model (FFD model)
Test: high-fat and high-fructose-induced NASH model (fast-food diet model: FFD model), 18 weeks gavage
Assay type: in vivo, C57BL/6J Jms Slc male mice
Details: for histopathological findings: Fat formation: large fat droplets, number of mice graded ± (Slight) / histopathological findings: Fat formation: large fat droplets, number of mice graded + (Moderate): 8 mice evaluated; for histopathological findings: Fat formation: large fat droplets, number of mice graded ± (Slight) / histopathological findings: Fibrosis, number of mice graded ± (Slight): Vehicle 3; for histopathological findings: Fat formation: large fat droplets, number of mice graded + (Moderate) / histopathological findings: Fibrosis, number of mice graded + (Moderate): Vehicle 5; for histopathological findings: Fibrosis, number of mice graded ± (Slight) / histopathological findings: Fibrosis, number of mice graded + (Moderate): individuals with liver nodules excluded; for number of CD68-positive hCLS in the liver (inhibitory effect on the increase vs Vehicle group): after 18 weeks of administration (FIG. 5); for liver TG (inhibitory effect on the increase vs Vehicle group): after 18 weeks of administration (FIG. 3)
Protocol: In the present Examples, using a high-fat and high-fructose-induced NASH model (fast-food diet model: FFD model), the effect of a test drug was evaluated. For the FFD model, refer to BMC Gastroenterol. 2020; 20: 210 and Am J Physiol Gastrointest Liver Physiol. 2013 Oct. 1; 305(7): G483-95. The test drug was prepared by adding hydrochloride of the compound represented by the formula (1) (hereinafter referred to as “compound 1”) to 0.5% MC and sonicating the mixture. 6-week-old C57BL/6J Jms Slc male mice were fed with standard diet (D09100304, Research Diets, Inc.) or FFD diet for pathogenesis (D09100310N, Research Diets, Inc.) for 20 weeks. Then, the mice were grouped as shown in Table 1 based on three indices, i.e., plasma alanine aminotransferase (ALT) levels, body weight, and fasting blood glucose levels. According to the dosage and usage shown in Table 1, the administration substance was gavaged to each group for 18 weeks. [table] ALT was measured by collecting blood from the tail vein after 12 weeks of administration. An autopsy was performed after 18 weeks of administration, and plasma aspartate aminotransferase (AST), plasma total cholesterol (Tcho), and liver triglyceride (TG) were measured. In addition, the Sirius red-positive area and the number of hepatic crown-like structures (hCLS) were measured by liver pathological analysis. Statistical analysis was performed using GraphPad Prism 6 (GraphPad Software, Inc.). For the Normal group and the Vehicle group, t-test or Mann-Whitney's test was performed. For the Vehicle group and the compound 1 group, Dunnett' multiple comparison test or Dunn's multiple comparison test was performed. Any of the test methods was appropriately selected according to the distribution of each parameter. The significance level of all the tests was set to p=0.05. A liver sample was homogenized in a phosphate buffer and extracted with methanol and chloroform overnight. Then, chloroform and distilled water were further added thereto. The mixture was separated by centrifugation, the chloroform layer was collected, and the solvent was dried. The precipitate was dissolved in isopropanol/TritonX-100, and this was used as a measurement sample, the measurement was carried out using Triglyceride E-Test Wako (FUJIFILM Wako Pure Chemical Corporation). The excised liver was fixed in a 10% neutral buffered formalin solution, and embedded in paraffin and Sirius red-stained specimens were prepared according to standard methods. The Sirius red-stained specimen was used to calculate the positive area. The positive area of the Normal group was averaged and used as the background. A CD68 immunostaining specimen (rabbit anti-CD68 polyclonal antibody [ab125212], Abcam) was prepared, and the number of hCLS was counted.

[1] = compound 1 (60) group, 60 mg/kg/day BID

CC(C)(Cc1ccc(C(=O)Oc2ccc(C(=N)N)cc2F)s1)C(=O)O [compound 1]
histopathological findings: Fat formation: large fat droplets, number of mice graded ± (Slight) (10 mg/kg QD): 4 | histopathological findings: Fat formation: large fat droplets, number of mice graded + (Moderate) (10 mg/kg QD): 4 | histopathological findings: Fibrosis, number of mice graded ± (Slight) (10 mg/kg QD): 6 | histopathological findings: Fibrosis, number of mice graded + (Moderate) (10 mg/kg QD): 2 | histopathological findings: Fat formation: large fat droplets, number of mice graded ± (Slight) (30 mg/kg QD): 2 | histopathological findings: Fat formation: large fat droplets, number of mice graded + (Moderate) (30 mg/kg QD): 6 | histopathological findings: Fibrosis, number of mice graded ± (Slight) (30 mg/kg QD): 6 | histopathological findings: Fibrosis, number of mice graded + (Moderate) (30 mg/kg QD): 1 | histopathological findings: Fat formation: large fat droplets, number of mice graded ± (Slight) (60 mg/kg/day BID): 7 | histopathological findings: Fat formation: large fat droplets, number of mice graded + (Moderate) (60 mg/kg/day BID): 1 | histopathological findings: Fibrosis, number of mice graded ± (Slight) (60 mg/kg/day BID): 6 | histopathological findings: Fibrosis, number of mice graded + (Moderate) (60 mg/kg/day BID): 2 | number of CD68-positive hCLS in the liver (inhibitory effect on the increase vs Vehicle group) (compound 1 (10) group, 10 mg/kg QD): statistically significant inhibitory effect | liver TG (inhibitory effect on the increase vs Vehicle group) (compound 1 (30) group, 30 mg/kg QD): statistically significant inhibitory effect | plasma ALT (inhibitory effect on the increase vs Vehicle group) (compound 1 (60) group, 60 mg/kg/day BID, after 12 weeks and 18 weeks of administration (FIG. 1A, 1B)): statistically significant inhibitory effect | plasma AST (inhibitory effect on the increase vs Vehicle group) (compound 1 (60) group, 60 mg/kg/day BID, after 18 weeks of administration (FIG. 1C)): statistically significant inhibitory effect | plasma Tcho (inhibitory effect on the increase vs Vehicle group) (compound 1 (60) group, 60 mg/kg/day BID, after 18 weeks of administration (FIG. 2)): statistically significant inhibitory effect | liver TG (inhibitory effect on the increase vs Vehicle group) [1]: statistically significant inhibitory effect | Sirius red-positive area in the liver (inhibitory effect on the increase vs Vehicle group) (compound 1 (60) group, 60 mg/kg/day BID, after 18 weeks of administration (FIG. 4)): statistically significant inhibitory effect | number of CD68-positive hCLS in the liver (inhibitory effect on the increase vs Vehicle group) [1]: statistically significant inhibitory effect
